Laboratory results as given in ChEMBL document CHEMBL1144228, “Isoxazolo[3,4-b]quinoline-3,4(1H,9H)-diones as unique, potent and selective inhibitors for Pim-1 and Pim-2 kinases: chemistry, biological activities, and molecular modeling” (Bioorg Med Chem Lett, 2008).

Tests used:
[1] = molecular target: Serine/threonine-protein kinase pim-1 (Homo sapiens, UniProt P11309); experiment: Inhibition of Pim1
[2] = molecular target: Serine/threonine-protein kinase pim-2 (Homo sapiens, UniProt Q9P1W9); experiment: Inhibition of Pim2
Serine/threonine-protein kinase pim-2, sequence (Q9P1W9 whole entry): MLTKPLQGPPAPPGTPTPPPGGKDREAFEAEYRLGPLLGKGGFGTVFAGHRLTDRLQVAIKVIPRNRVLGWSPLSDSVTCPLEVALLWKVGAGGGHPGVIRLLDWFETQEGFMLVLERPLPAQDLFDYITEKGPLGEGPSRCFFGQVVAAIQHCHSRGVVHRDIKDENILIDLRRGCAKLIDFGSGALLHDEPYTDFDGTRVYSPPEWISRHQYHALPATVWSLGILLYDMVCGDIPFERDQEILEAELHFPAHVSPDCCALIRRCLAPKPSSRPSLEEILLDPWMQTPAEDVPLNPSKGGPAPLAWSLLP

[3] = molecular target: Serine/threonine-protein kinase MARK1 (Homo sapiens, UniProt Q9P0L2); experiment: Inhibition of MARK
Serine/threonine-protein kinase MARK1, sequence (Q9P0L2 whole entry): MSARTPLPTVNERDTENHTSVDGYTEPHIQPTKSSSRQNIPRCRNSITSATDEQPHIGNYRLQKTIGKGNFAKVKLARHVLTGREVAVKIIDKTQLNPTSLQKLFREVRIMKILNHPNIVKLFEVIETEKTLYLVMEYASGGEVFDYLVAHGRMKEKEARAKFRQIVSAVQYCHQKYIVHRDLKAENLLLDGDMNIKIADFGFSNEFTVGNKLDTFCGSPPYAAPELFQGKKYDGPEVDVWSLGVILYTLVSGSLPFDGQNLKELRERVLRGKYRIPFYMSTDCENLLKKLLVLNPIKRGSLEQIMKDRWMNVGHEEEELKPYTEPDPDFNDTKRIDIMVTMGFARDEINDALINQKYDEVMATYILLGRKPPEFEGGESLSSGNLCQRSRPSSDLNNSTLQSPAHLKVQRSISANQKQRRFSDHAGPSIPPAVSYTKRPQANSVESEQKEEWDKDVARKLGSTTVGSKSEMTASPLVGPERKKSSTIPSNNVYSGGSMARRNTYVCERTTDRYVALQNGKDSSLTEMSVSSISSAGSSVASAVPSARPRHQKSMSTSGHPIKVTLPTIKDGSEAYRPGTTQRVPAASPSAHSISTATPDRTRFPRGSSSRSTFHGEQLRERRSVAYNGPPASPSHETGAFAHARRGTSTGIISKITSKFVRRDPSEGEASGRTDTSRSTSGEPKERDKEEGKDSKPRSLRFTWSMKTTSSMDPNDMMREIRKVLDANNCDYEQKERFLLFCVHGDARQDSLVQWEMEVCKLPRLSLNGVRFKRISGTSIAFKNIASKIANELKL

[4] = Inhibition of PKA
[5] = Inhibition of Casein kinase 2
[6] = molecular target: T1, 5'-AMP-activated protein kinase subunit beta-1 (Homo sapiens, UniProt Q9Y478); experiment: Inhibition of AMPK
T1 sequence (Q9Y478 whole entry): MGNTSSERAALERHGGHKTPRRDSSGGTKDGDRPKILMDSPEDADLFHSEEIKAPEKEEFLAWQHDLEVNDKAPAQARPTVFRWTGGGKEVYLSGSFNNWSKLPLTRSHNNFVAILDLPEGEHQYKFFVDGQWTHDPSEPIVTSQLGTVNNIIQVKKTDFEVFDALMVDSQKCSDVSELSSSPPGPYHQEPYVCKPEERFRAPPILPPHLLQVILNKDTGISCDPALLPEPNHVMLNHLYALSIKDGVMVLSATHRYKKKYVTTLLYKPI

[7] = molecular target: T2, Protein kinase C iota type (Homo sapiens, UniProt P41743); experiment: Inhibition of PKCiota
T2 sequence (P41743 whole entry): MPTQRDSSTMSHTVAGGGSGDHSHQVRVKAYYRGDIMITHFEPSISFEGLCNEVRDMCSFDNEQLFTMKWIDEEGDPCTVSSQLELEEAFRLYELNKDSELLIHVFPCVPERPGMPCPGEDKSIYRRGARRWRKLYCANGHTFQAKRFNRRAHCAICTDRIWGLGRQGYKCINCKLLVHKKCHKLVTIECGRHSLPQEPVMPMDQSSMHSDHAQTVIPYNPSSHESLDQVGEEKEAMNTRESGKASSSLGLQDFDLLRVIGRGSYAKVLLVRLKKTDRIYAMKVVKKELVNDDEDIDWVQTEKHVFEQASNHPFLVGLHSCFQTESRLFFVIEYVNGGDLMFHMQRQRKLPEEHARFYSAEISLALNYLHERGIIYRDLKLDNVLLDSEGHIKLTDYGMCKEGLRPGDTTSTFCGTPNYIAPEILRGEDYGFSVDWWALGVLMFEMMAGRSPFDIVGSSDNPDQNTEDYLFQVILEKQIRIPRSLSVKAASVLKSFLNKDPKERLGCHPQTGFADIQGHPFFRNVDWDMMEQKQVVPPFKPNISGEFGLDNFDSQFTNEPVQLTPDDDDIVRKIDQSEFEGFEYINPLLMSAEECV

[8] = Inhibition of Aurora2
[9] = Inhibition of Aurora1

Serine/threonine-protein kinase pim-1, sequence (P11309 whole entry): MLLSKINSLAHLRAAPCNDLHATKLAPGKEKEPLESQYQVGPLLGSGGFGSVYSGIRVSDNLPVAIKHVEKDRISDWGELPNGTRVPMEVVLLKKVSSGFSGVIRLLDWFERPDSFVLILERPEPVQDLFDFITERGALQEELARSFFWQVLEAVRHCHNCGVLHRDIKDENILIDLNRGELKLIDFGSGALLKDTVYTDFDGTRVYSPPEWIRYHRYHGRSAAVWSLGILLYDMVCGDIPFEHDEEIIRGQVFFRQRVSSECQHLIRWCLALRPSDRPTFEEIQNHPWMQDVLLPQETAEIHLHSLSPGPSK

| Ki [1] [nM] | Ki [2] [nM] | SMILES | further results |
| --- | --- | --- | --- |
| 1270 | > 1420 | CCn1c2cc(Cl)c(F)cc2c(=O)c2c(=O)on(Cc3ccccc3)c21 | – |
| 271 | > 1420 | CCn1c2cc(Cl)c(F)cc2c(=O)c2c(=O)on(Cc3cccc(O)c3)c21 | – |
| 36.5 | 558 | O=c1o[nH]c2c1c(=O)c1cc(F)c(Cl)cc1n2Cc1ccccc1 | – |
| 15 | 165 | CCCCn1c2cc(Cl)c(F)cc2c(=O)c2c(=O)o[nH]c21 | – |
| 1160 | > 1420 | CCn1c2cc(Cl)c(F)cc2c(=O)c2c(=O)on(CCO)c21 | – |
| 12.3 | 62.8 | CC(C)n1c2cc(Cl)c(F)cc2c(=O)c2c(=O)o[nH]c21 | – |
| 4890 | > 1420 | CCn1c2cc(Cl)c(F)cc2c(=O)c2c(=O)on(CCOCc3ccccc3)c21 | – |
| – | 43.5 | CCn1c2cc(Cl)c(O)cc2c(=O)c2c(=O)o[nH]c21 | Ki [3]: > 8440 nM; Ki [4]: > 7500 nM; Ki [5]: 1070 nM; Ki [6]: 1730 nM; Ki [7]: > 8330 nM; Ki [8]: > 6670 nM; Ki [9]: > 6880 nM |

| SMILES | Ki [1] [nM] | Ki [2] [nM] | further results |
| --- | --- | --- | --- |
| CCn1c2cc(Cl)c(OC)cc2c(=O)c2c(=O)o[nH]c21 | 2700 | > 1420 | – |
